Assay results from patent EP0255485A2, “Transdermal compositions” (priority 1986, dated 1988).
Counter-ions that a name gives are not always drawn. Like-named read-outs stand apart in the source and are kept apart here.

Experiments:
[1] = for P Px*: Px = permeability coefficient of the drug from propylene glycol solution; for Flux^+: expressed in terms of procaterol hydrochloride, concentration could not be measured
[2] = in vitro; conditions: mouse
[3] = Extrapolated delivery through human skin, assuming 1/5 the permeability of mouse skin; type: in vitro ADME
Protocol: The permeation of the compounds from the mixture of propylene glycol triacetin was negligible. The concentration of each analgesic can be increased to 3% or 4% in the donor solution and corresponding increases in flux can be expected. […] A usual dose for oxymorphone and hydromorphone is about 6 to 10 mg per day in humans.
Assuming the permeability of human skin to be 1/5 that of mouse skin, a daily flux of 0.68 mg can be achieved in man. The maximum daily dose in man is approximated to be 0.2 mg.

[4] = Vehicle LA:TA:PG 20:50:30, Conc'n. 21.57 mg/ml
[5] = LA:PG:TA 5:30:65, 0.5 wt % analgesic, Conc. 5.5 mg/ml
[6] = LA:PG:TA 10:30:60, 0.5 wt % analgesic, Conc. 5.4 mg/ml
[7] = LA:PG:TA 20:30:50, 0.5 wt % analgesic, Conc. 5.3 mg/ml

SMILES: CC1CC(=O)NN=C1c1ccc(-n2ccnc2)cc1 (stereo not drawn) [Compound I Base]
- Lag Time ([1]; 0 % Linoleic Acid in propylene glycol, Conc'n. 26.38 mg/ml): 6.2 h
- Flux ([1]; 0 % Linoleic Acid in propylene glycol, Conc'n. 26.38 mg/ml, expressed as hydrochloride salt): 0.4 ug/cm^2/h
- P Px* ([1]; 0 % Linoleic Acid in propylene glycol): 1
- Lag Time ([1]; 10 % Linoleic Acid in propylene glycol, Conc'n. 43 mg/ml): 1.75 h
- Flux ([1]; 10 % Linoleic Acid in propylene glycol, Conc'n. 43 mg/ml, expressed as hydrochloride salt): 492 ug/cm^2/h
- P Px* ([1]; 10 % Linoleic Acid in propylene glycol): 755
- Lag Time ([1]; 40 % Linoleic Acid in propylene glycol, Conc'n. 43 mg/ml): 1.45 h
- Flux ([1]; 40 % Linoleic Acid in propylene glycol, Conc'n. 43 mg/ml, expressed as hydrochloride salt): 337.3 ug/cm^2/h
- P Px* ([1]; 40 % Linoleic Acid in propylene glycol): 517
- Lag Time ([1]; 80 % Linoleic Acid in propylene glycol, Conc'n. 43 mg/ml): 1.29 h
- Flux ([1]; 80 % Linoleic Acid in propylene glycol, Conc'n. 43 mg/ml, expressed as hydrochloride salt): 148.5 ug/cm^2/h
- P Px* ([1]; 80 % Linoleic Acid in propylene glycol): 227
- Lag Time ([1]; 100 % Linoleic Acid, Conc'n. 31.5 mg/ml): 5.35 h
- Flux ([1]; 100 % Linoleic Acid, Conc'n. 31.5 mg/ml, expressed as hydrochloride salt): 24.5 ug/cm^2/h
- P Px* ([1]; 100 % Linoleic Acid): 51
- Flux [1, 4]: 130.14 ug/cm^2/h
- Lag Time [1, 4]: 1.91 h
- P Px* ([1]; Vehicle LA:TA:PG 20:50:30): 400
- Flux ([1]; Vehicle LA:TG 20:80 (TG = tetraglycol), Conc'n. 20.09 mg/ml): 186.69 ug/cm^2/h
- Lag Time ([1]; Vehicle LA:TG 20:80, Conc'n. 20.09 mg/ml): 5.58 h
- P Px* ([1]; Vehicle LA:TG 20:80): 614
- Papp ([2]; Permeability Coefficient (P), 0 % Linoleic Acid in propylene glycol, Conc'n. 26.38 mg/ml): 0.0042 ×10⁻⁶ cm/s
- Papp ([2]; Permeability Coefficient (P), 10 % Linoleic Acid in propylene glycol, Conc'n. 43 mg/ml): 3.18 ×10⁻⁶ cm/s
- Papp ([2]; Permeability Coefficient (P), 40 % Linoleic Acid in propylene glycol, Conc'n. 43 mg/ml): 2.18 ×10⁻⁶ cm/s
- Papp ([2]; Permeability Coefficient (P), 80 % Linoleic Acid in propylene glycol, Conc'n. 43 mg/ml): 0.96 ×10⁻⁶ cm/s
- Papp ([2]; Permeability Coefficient (P), 100 % Linoleic Acid, Conc'n. 31.5 mg/ml): 0.22 ×10⁻⁶ cm/s
- Papp ([2]; Permeability Coefficient (P), Vehicle LA:TA:PG 20:50:30, Conc'n. 21.57 mg/ml): 1.68 ×10⁻⁶ cm/s
- Papp ([2]; Permeability Coefficient (P), Vehicle LA:TG 20:80, Conc'n. 20.09 mg/ml): 2.58 ×10⁻⁶ cm/s
- Papp ([2]; permeability coefficient): 7.6 ×10⁻⁶ cm/s

SMILES: CN1CC[C@]23c4c5ccc(O)c4O[C@H]2C(=O)CC[C@@]3(O)[C@H]1C5 [OX, Oxymorphone]
- delivered from a 10 cm² patch in humans ([3]; loading concentration increased to 2%, four-fold increase in flux expected): about 12.8 mg/day
- delivery from a 10 cm² patch through human skin ([3]; loading concentration of 0.5%, assuming 1/5 the permeability): about 3.2 mg/day
- Flux [1, 5]: 40.0 ug/cm^2/hr
- Lag Time [1, 5]: 7.6 h
- Flux [1, 6]: 51.5 ug/cm^2/hr
- Lag Time [1, 6]: 4.1 h
- Flux [1, 7]: 66.6 ug/cm^2/hr
- Lag Time [1, 7]: 3.5 h
- delivery from a 10 cm² patch through hairless mouse skin ([1]; loading concentration of 0.5%, equivalent of flux 66.6 ug/cm²/hr): about 16 mg/day
- Papp ([2]; PX10^6, LA:PG:TA 5:30:65, 0.5 wt % analgesic, Conc. 5.5 mg/ml): 2 ×10⁻⁶ cm/s
- Papp ([2]; PX10^6, LA:PG:TA 10:30:60, 0.5 wt % analgesic, Conc. 5.4 mg/ml): 2.7 ×10⁻⁶ cm/s
- Papp ([2]; PX10^6, LA:PG:TA 20:30:50, 0.5 wt % analgesic, Conc. 5.3 mg/ml): 3.5 ×10⁻⁶ cm/s

SMILES: CCC(NC(C)C)C(O)c1ccc(O)c2[nH]c(=O)ccc12 (stereo not drawn) [Procaterol Hydrochloride]
- daily flux in man [3]: 0.68 mg
- Lag Time ([1]; Solvent System LA:PG:TA 20:30:50, approximate concentration 5 mg/ml): 4.0 h
- Flux ([1]; Solvent System LA:PG:TA 20:30:50, approximate concentration 5 mg/ml, Hydrochloride): 14 ug/cm^2/h
- Flux ([1]; Solvent System LA:PG:TA 20:30:50, approximate concentration 5 mg/ml, listed as procaterol hydrochloride, Hydrochloride): about 14 ug/cm^2/h
- flux value ([1]; formulation containing LA:PG:TA (20:30:50)): 3.36 mg/day/10 cm²
- Papp ([2]; P, Solvent System LA:PG:TA 20:30:50, approximate concentration 5 mg/ml): 0.77 ×10⁻⁶ cm/s

SMILES: CCC(NC(C)C)C(O)c1ccc(O)c2[nH]c(=O)ccc12 (stereo not drawn) [Procaterol]
- Lag Time ([1]; Ratio of LA:TA:PG 5:85:10): 5.5 h
- Flux^+ ([1]; Ratio of LA:TA:PG 5:85:10): 23.1 ug/cm^2/h
- Lag Time ([1]; Ratio of LA:TA:PG 10:80:10): 4.8 h
- Flux^+ ([1]; Ratio of LA:TA:PG 10:80:10): 44.2 ug/cm^2/h
- Lag Time ([1]; Ratio of LA:TA:PG 15:75:10): 4.05 h
- Flux^+ ([1]; Ratio of LA:TA:PG 15:75:10): 53.2 ug/cm^2/h
- Lag Time ([1]; Ratio of LA:TA:PG 20:50:30): 4.4 h
- Flux^+ ([1]; Ratio of LA:TA:PG 20:50:30): 56.3 ug/cm^2/h
- Lag Time ([1]; Ratio of LA:TA:PG 20:75:5): 4.8 h
- Flux^+ ([1]; Ratio of LA:TA:PG 20:75:5): 33.9 ug/cm^2/h
- Lag Time ([1]; Vehicle Ethyl Linoleate:PG:TA 10:5:85, Drug Conc. 0.855 mg/ml): 6 h
- Flux ([1]; Vehicle Ethyl Linoleate:PG:TA 10:5:85, Drug Conc. 0.855 mg/ml, expressed as procaterol hydrochloride): 9.60 ug/cm^2/h
- Lag Time ([1]; Vehicle Ethyl Linoleate:TG 10:90, Drug Conc. 12.29 mg/ml): 8 h
- Flux ([1]; Vehicle Ethyl Linoleate:TG 10:90, Drug Conc. 12.29 mg/ml, expressed as procaterol hydrochloride): 36.27 ug/cm^2/h
- Lag Time ([1]; Vehicle LA:TA:PG 20:50:30, Procaterol Conc. 40 mg/ml): 1.26 h
- Flux ([1]; Vehicle LA:TA:PG 20:50:30, Procaterol Conc. 40 mg/ml, expressed as hydrochloride salt): 158.6 ug/cm^2/h
- Lag Time ([1]; Vehicle LA:TEC:PG 10:70:20, Drug Conc. 23.03 mg/ml): 14.7 h
- Flux* ([1]; Vehicle LA:TEC:PG 10:70:20, Drug Conc. 23.03 mg/ml, expressed as hydrochloride salt): 33.5 ug/cm^2/h
- Lag Time ([1]; Vehicle LA:TEC:PG 10:80:10, Drug Conc. 16.9 mg/ml): 14.7 h
- Flux* ([1]; Vehicle LA:TEC:PG 10:80:10, Drug Conc. 16.9 mg/ml, expressed as hydrochloride salt): 32.0 ug/cm^2/h
- Lag Time ([1]; Vehicle LA:TEC:PG 20:50:30, Drug Conc. 4.32 mg/ml): 11.2 h
- Flux* ([1]; Vehicle LA:TEC:PG 20:50:30, Drug Conc. 4.32 mg/ml, expressed as hydrochloride salt): 8.5 ug/cm^2/h
- Lag Time ([1]; Vehicle LA:TEC:PG 20:50:30, Drug Conc. 44.7 mg/ml): 7.3 h
- Flux* ([1]; Vehicle LA:TEC:PG 20:50:30, Drug Conc. 44.7 mg/ml, expressed as hydrochloride salt): 65.8 ug/cm^2/h
- Lag Time ([1]; Vehicle LA:TEC:PG 20:60:20, Drug Conc. 19.35 mg/ml): 4.9 h
- Flux* ([1]; Vehicle LA:TEC:PG 20:60:20, Drug Conc. 19.35 mg/ml, expressed as hydrochloride salt): 46.0 ug/cm^2/h
- Flux ([1]; Vehicle LNA:PG:TA 20:15:65 (LNA = Linolenic Acid), Drug Conc. 8.15 mg/ml, expressed as procaterol hydrochloride): 76.27 ug/cm^2/h
- Lag Time ([1]; Vehicle LNA:PG:TA 20:15:65, Drug Conc. 8.15 mg/ml): 2 h
- Lag Time ([1]; Vehicle Oleic Acid:PG:TA 20:30:50, Drug Conc. 15.89 mg/ml): 1.8 h
- Flux ([1]; Vehicle Oleic Acid:PG:TA 20:30:50, Drug Conc. 15.89 mg/ml, expressed as procaterol hydrochloride): 171.76 ug/cm^2/h
- Papp ([2]; P, Vehicle Ethyl Linoleate:PG:TA 10:5:85, Drug Conc. 0.855 mg/ml): 3.12 ×10⁻⁶ cm/s
- Papp ([2]; P, Vehicle Ethyl Linoleate:TG 10:90, Drug Conc. 12.29 mg/ml): 0.82 ×10⁻⁶ cm/s
- Papp ([2]; P, Vehicle LA:TA:PG 20:50:30, Procaterol Conc. 40 mg/ml): 1.1 ×10⁻⁶ cm/s
- Papp ([2]; P, Vehicle LA:TEC:PG 10:70:20, Drug Conc. 23.03 mg/ml): 0.404 ×10⁻⁶ cm/s
- Papp ([2]; P, Vehicle LA:TEC:PG 10:80:10, Drug Conc. 16.9 mg/ml): 0.526 ×10⁻⁶ cm/s
- Papp ([2]; P, Vehicle LA:TEC:PG 20:50:30, Drug Conc. 4.32 mg/ml): 0.547 ×10⁻⁶ cm/s
- Papp ([2]; P, Vehicle LA:TEC:PG 20:50:30, Drug Conc. 44.7 mg/ml): 0.41 ×10⁻⁶ cm/s
- Papp ([2]; P, Vehicle LA:TEC:PG 20:60:20, Drug Conc. 19.35 mg/ml): 0.66 ×10⁻⁶ cm/s
- Papp ([2]; P, Vehicle LNA:PG:TA 20:15:65, Drug Conc. 8.15 mg/ml): 2.6 ×10⁻⁶ cm/s
- Papp ([2]; P, Vehicle Oleic Acid:PG:TA 20:30:50, Drug Conc. 15.89 mg/ml): 3 ×10⁻⁶ cm/s
